Measurements reported in patent publication US11161815B2, “Hydrocarbylsulfonyl-substituted pyridines and their use in the treatment of cancer” (Oblique Therapeutics AB, priority 2017, dated 2021).

What was measured:
[1] = biological target: gluthathione reductase (GR) (Homo sapiens (Human), UniProt P00390); test: Inhibition of recombinant GR (GSSG assay); assay type: biochemical; conditions: 2 nM GR, 250 μM NADPH, 15 minutes incubation
Method: (§1) Small molecule inhibition of recombinant thioredoxin reductase 1 (TrxR1) and gluthathione reductase (GR) was examined in 96-well plate format. 30 nM TrxR1 was incubated in the presence of 250 μM NADPH, 0.1 mg/ml BSA, and various concentrations of compound (1% DMSO final) in 50 mM Tris (pH 7.5) and 2 mM EDTA buffer for 15 minutes. Following the incubation period, 2 mM DTNB was added to each well and the change in O.D. at 412 nm was followed. Percent activity was determined using DMSO vehicle and no TrxR1 (blank) controls. 2 nM GR was incubated in the presence of 250 μM NADPH, 0.1 mg/ml BSA, and various concentrations of compounds (1% DMSO final) in 50 mM Tris (pH 7.5) and 2 mM EDTA buffer for 15 minutes. Following the incubation period, 1 mM GSSG was added to each well and the change in O.D. at 340 nm was followed. Percent activity was determined using DMSO vehicle and no GR (blank) controls.

[2] = biological target: recombinant thioredoxin reductase 1 (TrxR1) (Homo sapiens (Human), UniProt Q16881); test: Inhibition of recombinant TrxR1 (DTNB assay); assay type: biochemical; conditions: 30 nM TrxR1, 250 μM NADPH, 15 minutes incubation, read-out: TrxR Assay IC50
Method: as §1

[3] = tested on: U-87 MG; test: Cancer cell viability assay (MTT), U-87 MG; assay type: cell-based; conditions: Homo sapiens, 72 hrs, 10% FBS media
Method: (§2) Breast cancer and glioblastoma cell lines were plated 4000 cells/well in 96-well plates in the presence of 10% FBS media. The following day cells were treated with various concentrations of the example compounds (0.1% DMSO final) and incubated for 72 hrs. After the incubation An MTT assay was performed to access cell viability. Percent of viability was determined using DMSO vehicle and no cell (blank) controls.

[4] = tested on: MDA-MB-468; test: Cancer cell viability assay (MTT), MDA-MB-468; assay type: cell-based; conditions: Homo sapiens, 72 hrs, 10% FBS media
Method: as §2

[5] = tested on: MDA-MB-231; test: Cancer cell viability assay (MTT), MDA-MB-231; assay type: cell-based; conditions: Homo sapiens, 72 hrs, 10% FBS media
Method: as §2

[6] = tested on: MDA-MB-231 cells; test: Breast cancer cell viability assay (Alamar Blue); assay type: cell-based; conditions: Homo sapiens, 72 hrs, 10% FBS media containing 25 nM selenite
Method: (§3) MDA-MB-231 cells were plated 2000 cells/well in 96-well black optical plates in the presence of 10% FBS media containing 25 nM selenite. The following day cells were treated with various concentrations of compounds (0.1% DMSO final) and incubated for 72 hrs. After the incubation Alamar Blue reagent was added to each well and incubated for additional 3 hrs. Fluorescence was read ex:530 nm/em:590 nm, and percent of viability was determined using DMSO vehicle and no cell (blank) controls.

[7] = tested on: FaDu cells; test: Head and neck cancer cell viability assay (Cell-Quanti Blue); assay type: cell-based; conditions: Homo sapiens, 72 hrs, 10% FBS media containing 25 nM selenite
Method: as §3, with “FaDu” for “MDA-MB-231”, “the compound of Example 1” for “compounds”, “Cell-Quanti” for “Alamar”

Chain of recombinant thioredoxin reductase 1 (TrxR1) (Q16881 151-649): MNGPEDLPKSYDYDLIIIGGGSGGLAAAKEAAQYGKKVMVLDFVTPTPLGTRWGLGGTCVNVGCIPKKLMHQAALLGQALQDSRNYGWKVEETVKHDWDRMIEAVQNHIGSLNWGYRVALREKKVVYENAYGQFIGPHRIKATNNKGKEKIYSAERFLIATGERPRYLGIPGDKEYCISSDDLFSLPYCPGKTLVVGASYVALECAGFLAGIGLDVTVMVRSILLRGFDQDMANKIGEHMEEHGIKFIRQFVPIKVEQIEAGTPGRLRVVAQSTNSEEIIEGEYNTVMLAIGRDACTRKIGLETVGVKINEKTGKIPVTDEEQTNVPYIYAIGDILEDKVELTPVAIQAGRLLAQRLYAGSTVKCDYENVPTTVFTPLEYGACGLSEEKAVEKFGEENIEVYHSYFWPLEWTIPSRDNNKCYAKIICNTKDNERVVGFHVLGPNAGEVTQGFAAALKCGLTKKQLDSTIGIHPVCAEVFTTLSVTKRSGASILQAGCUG
Chain of gluthathione reductase (GR) (P00390 44-522): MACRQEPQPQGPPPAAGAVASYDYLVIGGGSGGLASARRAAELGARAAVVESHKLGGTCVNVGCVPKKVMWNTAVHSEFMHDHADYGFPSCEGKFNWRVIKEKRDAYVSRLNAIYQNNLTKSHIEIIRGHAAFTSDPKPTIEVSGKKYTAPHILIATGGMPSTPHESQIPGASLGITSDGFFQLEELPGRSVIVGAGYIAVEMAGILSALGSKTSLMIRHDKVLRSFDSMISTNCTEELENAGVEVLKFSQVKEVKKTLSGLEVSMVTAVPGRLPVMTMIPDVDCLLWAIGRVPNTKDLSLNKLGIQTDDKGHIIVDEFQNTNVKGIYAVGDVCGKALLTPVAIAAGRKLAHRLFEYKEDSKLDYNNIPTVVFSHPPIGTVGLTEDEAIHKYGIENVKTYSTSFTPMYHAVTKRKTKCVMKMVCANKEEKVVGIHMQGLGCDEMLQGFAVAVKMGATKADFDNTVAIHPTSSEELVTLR

CCCCCCCC[S+]([O-])c1nc(OC)ccc1[N+](=O)[O-] (stereo not shown) [Example 33, 6-Methoxy-3-nitro-2-octylsulfinyl-pyridine]
IC50 [1]: 85.4 µM
IC50 [2]: 0.5 µM
IC50 [3]: 9.25 µM
IC50 [4]: 1.85 µM
IC50 [5]: 3.84 µM

COc1ccc([N+](=O)[O-])c(S(=O)(=O)Cc2ccco2)n1 [Example 29, 2-((furan-2-ylmethyl)sulfonyl)-6-methoxy-3-nitropyridine]
IC50 [1]: > 100 µM
IC50 [2]: 0.00678 µM
IC50 [6]: 4.36 µM

COc1ccc([N+](=O)[O-])c(S(=O)(=O)Cc2ccc(OC(F)(F)F)cc2)n1 [Example 25, 6-methoxy-3-nitro-2-((4-(trifluoromethoxy)benzyl)sulfonyl)pyridine]
IC50 [1]: > 100 µM
IC50 [2]: 0.00103 µM

O=[N+]([O-])c1ccc(Cl)nc1S(=O)(=O)Cc1ccccc1 [Example 4, 2-Benzylsulfonyl-6-chloro-3-nitropyridine]
IC50 [1]: 18.1 µM
IC50 [2]: 0.0392 µM
IC50 [7]: 0.66 µM

COc1ccc([N+](=O)[O-])c(S(=O)(=O)Cc2ccc(F)cc2)n1 [Example 22, 2-((4-fluorobenzyl)sulfonyl)-6-methoxy-3-nitropyridine]
IC50 [1]: > 100 µM
IC50 [2]: 0.00505 µM
IC50 [6]: 1.85 µM

CCCCCCS(=O)(=O)c1nc(OC)ccc1[N+](=O)[O-] [Example 3, 2-Hexylsulfonyl-6-methoxy-3-nitropyridine]
IC50 [1]: > 100 µM
IC50 [2]: 0.489 µM
IC50 [7]: 0.45 µM

CN(C)c1ccc([N+](=O)[O-])c(S(=O)(=O)C2CCCC2)n1 [Example 8, 2-Cyclopentylsulfonyl-6-dimethylamino-3-nitropyridine]
IC50 [1]: > 100 µM
IC50 [2]: 0.188 µM
IC50 [7]: 6.97 µM

COc1ccc([N+](=O)[O-])c(S(=O)(=O)CCc2cnccn2)n1 [Example 30, 2-(2-((6-methoxy-3-nitropyridin-2-yl)sulfonyl)ethyl)pyrazine]
IC50 [1]: > 100 µM
IC50 [2]: 0.0669 µM
IC50 [6]: 2.66 µM

CN(C)c1ccc([N+](=O)[O-])c(S(=O)(=O)Cc2ccccc2)n1 [Example 7, 2-Benzylsulfonyl-6-dimethylamino-3-nitropyridine]
IC50 [7]: 2.88 µM

COc1ccc([N+](=O)[O-])c(S(=O)(=O)C(C)C)n1 [Example 11, 2-(isopropylsulfonyl)-6-methoxy-3-nitropyridine]
IC50 [1]: > 100 µM
IC50 [2]: 0.204 µM
IC50 [3]: 6 µM
IC50 [4]: 4.9 µM
IC50 [5]: 7.1 µM

COc1ccc([N+](=O)[O-])c(S(=O)(=O)CCNC(C)=O)n1 [Example 15, N-(2-((6-methoxy-3-nitropyridin-2-yl)sulfonyl)ethyl)acetamide]
IC50 [1]: > 100 µM
IC50 [2]: 0.122 µM
IC50 [3]: 16.3 µM
IC50 [4]: 5.47 µM
IC50 [5]: 18.4 µM
IC50 [6]: 11.4 µM

CCS(=O)(=O)c1nc(OC)ccc1[N+](=O)[O-] [Example 10, 2-(ethylsulfonyl)-6-methoxy-3-nitropyridine]
IC50 [1]: > 100 µM
IC50 [2]: 0.124 µM
IC50 [3]: 5.95 µM
IC50 [4]: 3.16 µM
IC50 [5]: 5.12 µM
IC50 [6]: 2.95 µM

COc1ccc([N+](=O)[O-])c(S(=O)(=O)CCOc2ccccc2)n1 [Example 28, 6-methoxy-3-nitro-2-((2-phenoxyethyl)sulfonyl)pyridine]
IC50 [1]: > 100 µM
IC50 [2]: 0.0203 µM
IC50 [6]: 5.24 µM

COc1ccc([N+](=O)[O-])c(S(=O)(=O)CCCc2ccccc2)n1 [Example 27, 6-methoxy-3-nitro-2-((3-phenylpropyl)sulfonyl)pyridine]
IC50 [1]: > 100 µM
IC50 [2]: 0.00733 µM
IC50 [6]: 7.13 µM

CC[S+]([O-])c1nc(OC)ccc1[N+](=O)[O-] (stereo not shown) [Example 31, 2-Ethanesulfinyl-6-methoxy-3-nitro-pyridine]
IC50 [1]: > 100 µM
IC50 [2]: 0.131 µM
IC50 [3]: 6.22 µM
IC50 [4]: 3.23 µM
IC50 [5]: 3.51 µM

COc1ccc([N+](=O)[O-])c(S(=O)(=O)Cc2ccc(Cl)cc2)n1 [Example 21, 2-((4-chlorobenzyl)sulfonyl)-6-methoxy-3-nitropyridine]
IC50 [1]: > 100 µM
IC50 [2]: 0.00435 µM
IC50 [6]: 4.1 µM

COc1ccc([N+](=O)[O-])c([S+]([O-])Cc2ccccc2)n1 (stereo not shown) [Example 32, 2-benzylsulfinyl-6-methoxy-3-nitro-pyridine]
IC50 [2]: 0.0765 µM
IC50 [3]: 2.48 µM
IC50 [4]: 0.64 µM
IC50 [5]: 1.42 µM

COc1ccc(CS(=O)(=O)c2nc(OC)ccc2[N+](=O)[O-])cc1 [Example 24, 6-methoxy-2-((4-methoxybenzyl)sulfonyl)-3-nitropyridine]
IC50 [1]: > 100 µM
IC50 [2]: 0.0253 µM
IC50 [6]: 3.5 µM

CCCCCCCCS(=O)(=O)c1nc(OC)ccc1[N+](=O)[O-] [Example 12, 6-methoxy-3-nitro-2-(octylsulfonyl)pyridine]
IC50 [1]: > 100 µM
IC50 [2]: 0.0123 µM
IC50 [6]: 4.51 µM

COc1ccc([N+](=O)[O-])c(S(=O)(=O)C2CCCC2)n1 [Example 2, 2-Cyclopentylsulfonyl-6-methoxy-3-nitropyridine]
IC50 [1]: > 100 µM
IC50 [2]: 1.03 µM
IC50 [7]: 3.65 µM

COC(=O)CCS(=O)(=O)c1nc(OC)ccc1[N+](=O)[O-] [Example 16, methyl 3-((6-methoxy-3-nitropyridin-2-yl)sulfonyl)propanoate]
IC50 [1]: > 100 µM
IC50 [2]: 0.0606 µM
IC50 [3]: 5.23 µM
IC50 [4]: 3.9 µM
IC50 [5]: 4.9 µM
IC50 [6]: 8.09 µM

CCCCCCS(=O)(=O)c1nc(Cl)ccc1[N+](=O)[O-] [Example 6, 6-Chloro-2-(hexylsulfonyl)-3-nitropyridine]
IC50 [1]: 8.76 µM
IC50 [2]: 0.056 µM
IC50 [7]: 0.71 µM

O=[N+]([O-])c1ccc(Cl)nc1S(=O)(=O)C1CCCC1 [Example 5, 6-Chloro-2-(cyclopentylsulfonyl)-3-nitropyridine]
IC50 [1]: 60.5 µM
IC50 [2]: 0.181 µM
IC50 [7]: 1.01 µM

COc1ccc([N+](=O)[O-])c(S(=O)(=O)Cc2ccccc2Cl)n1 [Example 19, 2-((2-chlorobenzyl)sulfonyl)-6-methoxy-3-nitropyridine]
IC50 [1]: > 100 µM
IC50 [2]: 0.0076 µM
IC50 [6]: 1.8 µM

COc1ccc([N+](=O)[O-])c(S(=O)(=O)CCCO)n1 [Example 17, 3-((6-methoxy-3-nitropyridin-2-yl)sulfonyl)propan-1-ol]
IC50 [1]: > 100 µM
IC50 [2]: 0.103 µM
IC50 [3]: 19.5 µM
IC50 [4]: 9.77 µM
IC50 [5]: > 33 µM
IC50 [6]: 12.5 µM

COc1ccc([N+](=O)[O-])c(S(=O)(=O)C2CC2)n1 [Example 13, 2-(cyclopropylsulfonyl)-6-methoxy-3-nitropyridine]
IC50 [1]: > 100 µM
IC50 [2]: 0.16 µM
IC50 [3]: 6.92 µM
IC50 [4]: 4.68 µM
IC50 [5]: 5.91 µM

COc1ccc([N+](=O)[O-])c(S(=O)(=O)CCc2ccccc2)n1 [Example 26, 6-methoxy-3-nitro-2-(phenethylsulfonyl)pyridine]
IC50 [1]: > 100 µM
IC50 [2]: 0.0188 µM
IC50 [6]: 5.22 µM

CCCCCCS(=O)(=O)c1nc(N(C)C)ccc1[N+](=O)[O-] [Example 9, 6-Dimethylamino-2-hexylsulfonyl-3-nitropyridine]
IC50 [1]: > 100 µM
IC50 [2]: 0.333 µM
IC50 [7]: 12.7 µM

COc1ccc([N+](=O)[O-])c(S(=O)(=O)CCCCC(F)(F)F)n1 [Example 14, 6-methoxy-3-nitro-2-((5,5,5-trifluoropentyl)sulfonyl)pyridine]
IC50 [1]: > 100 µM
IC50 [2]: 0.0969 µM
IC50 [3]: 7.52 µM
IC50 [4]: 3.88 µM
IC50 [5]: 7.73 µM
IC50 [6]: 5.6 µM

COc1ccc([N+](=O)[O-])c(S(=O)(=O)Cc2cccc(Cl)c2)n1 [Example 20, 2-((3-chlorobenzyl)sulfonyl)-6-methoxy-3-nitropyridine]
IC50 [1]: > 100 µM
IC50 [2]: 0.00716 µM
IC50 [6]: 3.2 µM

COc1ccc([N+](=O)[O-])c(S(=O)(=O)Cc2ccc(C)cc2)n1 [Example 23, 6-methoxy-2-((4-methylbenzyl)sulfonyl)-3-nitropyridine]
IC50 [1]: > 100 µM
IC50 [2]: 0.0145 µM

COc1ccc([N+](=O)[O-])c(S(=O)(=O)CCN2CCCCC2)n1 [Example 18, 6-methoxy-3-nitro-2-((2-(piperidin-1-yl)ethyl)sulfonyl)pyridine]
IC50 [1]: > 100 µM
IC50 [2]: 0.00152 µM
